Biological target: T1, ENT1 (Homo sapiens, UniProt Q99808)
T1 construct: expressed in transfected cells
T1 sequence (Q99808 1-456): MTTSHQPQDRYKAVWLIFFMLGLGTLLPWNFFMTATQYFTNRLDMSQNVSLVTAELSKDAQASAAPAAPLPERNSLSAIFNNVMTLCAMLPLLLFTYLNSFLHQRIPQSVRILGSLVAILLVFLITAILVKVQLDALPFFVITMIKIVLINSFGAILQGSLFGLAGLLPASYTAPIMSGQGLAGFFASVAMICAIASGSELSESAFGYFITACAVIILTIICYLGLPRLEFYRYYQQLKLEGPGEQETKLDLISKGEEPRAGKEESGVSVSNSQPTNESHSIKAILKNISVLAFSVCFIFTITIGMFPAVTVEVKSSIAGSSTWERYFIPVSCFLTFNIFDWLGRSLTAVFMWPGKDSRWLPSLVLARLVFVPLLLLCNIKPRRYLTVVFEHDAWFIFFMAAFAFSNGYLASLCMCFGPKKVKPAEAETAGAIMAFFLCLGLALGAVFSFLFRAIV
Test: Kinetic study of [3H]uridine uptake in PK15NTD/ENT1 cells
Assay type: cell-based
Description: Nucleoside transporter-deficient porcine kidney fibroblast cells (PK15NTD) stably transfected with cloned human ENT1 or ENT2 ([Ward et al., 2000]) were used as the in vitro models. The cells were cultured in Dulbecco’s Modified Eagle’s Medium (DMEM) supplemented with 10% (v/v) foetal bovine serum, 0.5 mg/ml geneticin, 100 units/ml penicillin, 100 μg/ml streptomycin and 0.25 μg/ml of amphotericin B at 37°C in 5% CO2/95% air.
Confluent monolayers of PK15NTD/ENT1 and PK15NTD/ENT2 cells in 24-well plates were washed thrice with HEPES-buffered Ringer’s solution containing (mM): 135 NaCl, 10 glucose, 5 KCl, 5 HEPES, 3.33 NaH2PO4, 1.0 CaCl2, 1.0 MgCl2, 0.83 Na2HPO4; pH 7.4. The cells were incubated with different concentrations of FPMINT analogues (from 10 nM to 100 μM) containing [^3H]uridine (2 μCi/ml, 1 μM) for 1 min. Passive uridine uptake was determined by incubating the cells in HEPES-buffered Ringer’s solution containing [^3H]uridine in the presence of 0.5 mM NBMPR. The cells were rapidly washed five times with ice-cold phosphate-buffered saline (PBS). After air-drying, the cells were solubilised by overnight incubation in 500 μl of 5% Triton-X100. Next, 300 μl of the cell lysates were mixed with 2 ml of scintillation liquid. The radioactivity of each sample was quantified by a scintillation counter. The protein content in each well was determined spectrophotometrically using a commercial bicinchoninic acid assay (Pierce Biochemicals, Rockford, IL). Uptake values were expressed as picomoles of [^3H]uridine per milligram of cellular protein per minute.
All data were analysed by GraphPad Prism software (San Diego, CA, United States). Data are expressed as mean ± standard error (SE) of three experiments performed in triplicate. The IC50 values were determined from the dose-response curves fitted with a logistic function. For the kinetic study of [^3H]uridine uptake, apparent K m and V max values were determined from the Michaelis-Menten equation, and K i was determined from the X-intercept of linear regression. Analysis of variance and Student’s t-test were performed for multiple and paired variables, respectively. p values of <0.05 were considered to be statistically significant.
Compound 3c was selected for further investigation. The kinetic study of [^3H]uridine transport was performed by measuring the concentration-dependent uptake of [^3H]uridine. This study could provide clue about the mode of action of compound 3c. The uptake of [^3H]uridine by ENT1 and ENT2 was saturable and conformed to Michaelis-Menten kinetics. Compound 3c decreased the V max of ENT1 but had no effect on K m . […] The slopes of the linear 1/V versus 1/[S] plots increased with the concentration of compound 3c (Figure 4B).
FIGURE 4 Competitive inhibition of ENT1 and ENT2 by compound 3c. Kinetic study of [^3H]uridine uptake (0.1 μM–1 mM) was measured in (A) PK15NTD/ENT1 and (D) PK15NTD/ENT2 cells in the presence of various concentrations of compound 3c (0, 0.01, 0.1, 1 and 10 µM) (B,E) 1/V versus 1/[S] plots of each curve in (A) and (D), respectively (C,F) The plot of slopes of each line in (B) and (E), respectively, versus the concentration of compound 3c. Data are presented as mean ± SE of three experiments.

Cc1cccc(Nc2nc(N)nc(CN3CCN(c4ccc(F)cc4)CC3)n2)c1 [Compound 3c]
apparent Vmax of ENT1 (0.01 µM compound 3c): 2083 ± 36.80 pmol/mg protein/min
apparent Vmax of ENT1 (0.1 µM compound 3c): 1867 ± 27.63 pmol/mg protein/min
apparent Vmax of ENT1 (1 µM compound 3c): 1377 ± 37.81 pmol/mg protein/min
apparent Vmax of ENT1 (10 µM compound 3c): 732.9 ± 12.02 pmol/mg protein/min
mode of inhibition of ENT1-mediated uridine transport (decreased Vmax, apparent Km unchanged): non-competitive inhibitor
Ki (x-intercept of slopes versus concentration plot): 2.79 µM

Source: article PMC8899516, “Structure-Activity Relationship Studies of 4-((4-(2-fluorophenyl)piperazin-1-yl)methyl)-6-imino-N-(naphthalen-2-yl)-1,3,5-triazin-2-amine (FPMINT) Analogues as Inhibitors of Human Equilibrative Nucleoside Transporters” (Frontiers in Pharmacology, 2022)
